{
  "source": "paper PMC10103840",
  "about": "(Frontiers in Pharmacology, 2023)",
  "key": {"[1]": {"system": "BeWo cells", "settings": "ref Spiess et al., 2022b, cited from earlier work"}, "[2]": {"system": "human placental barrier", "settings": "for Sampling (% found): amount removed by sampling during 240 min perfusion; for M perfusate (% found): maternal perfusate after 240 min"}, "[3]": {"system": "BeWo b30 cells", "experiment": "Sodium fluorescein (NaF) exclusion assay for monolayer formation", "format": "in vitro ADME, human", "settings": "day 9 after seeding, 5 μM apical, 60 min", "method": "Measurement of transepithelial electrical resistance (TER) was used to assess the tightness of a cell-to-cell barrier, and the electrical capacitance Ccl, provided additional information about the properties of the cell layer (e.g., presence of microvilli and other membrane extrusions). TER and Ccl values were recorded in 15 min time intervals, using a cellZscope®. TER values were corrected for the surface area (Ωcm^2) and the reference resistance (well with the same filter insert and medium, but absence of cells). Moreover, a permeability assay with sodium fluorescein (NaF) was performed on days 7–11 (n = 3). The basolateral compartment of a transparent 24-well plate consisted of PBS only (1′000 μL) while NaF (5 μM in PBS; 200 μL) was added to the apical compartment for 60 min. The control consisted of cell-free inserts (n = 3). Basolateral samples (50 μL) were directly added to black Nunc MaxiSorp microtiter plates, and concentrations were determined using a Cytation 3 fluorescence microplate reader (BioTek Instruments; excitation wavelength 460 nm; emission wavelength 515 nm). […]\nhyperforin, h ypericin, and valerenic acid. The compounds were spiked into PBS and then […]\nto avoid interference of any stabilit y issues. […]\nfour independent experiments.\nSupplementary Figure 3. Evaluation of monolayer formation using a sodium fluorescein […]\nControl consists of a cell-free insert […]"}, "[4]": {"experiment": "in vitro", "settings": "human, pH 7.2"}, "[5]": {"experiment": "In vitro Transwell permeability assay across BeWo b30 cell layer", "settings": "human", "method": "(§1) BeWo b30 choriocarcinoma cells were obtained from Dr. Tina Buerki-Thurnherr (Empa, St. Gallen, Switzerland), with permission from Dr. Alan L. Schwartz (Washington University School of Medicine, St. Louis MO, USA), and were cultivated in F-12 K Nut Mix supplemented with 10% heat inactivated FBS, antibiotics (100 U/mL penicillin, 100 µg/mL […]), and 2 mM L-glutamine (all from Gibco). The cells were cultivated in a humidified incubator at 37°C and 5% CO2 atmosphere.\n(§2) BeWo b30 cells were cultured on Transwell® polycarbonate membrane inserts (24-well format; 0.4 μm pore size, 0.33 cm^2 cell growth area, 200 μL apical volume, 1′000 μL basolateral volume; Corning, Sigma-Aldrich) at a density of 60′000 cells/well. These inserts were then cultivated in a cellZscope (nanoAnalytics) at 37°C/5% CO2. Cell culture medium was replaced every 2 days up to 11 days to find the best possible conditions.\n(§3) BeWo b30 cells were cultured in transparent 24-well plates under the same conditions as mentioned above and transferred to the cellZscope® at day 8 to record TER and Ccl values. After 24 h (day 9) and when a TER of 30–60 Ωcm^2 was reached and Ccl was between 0.5 and 5.0 μF/cm^2, the permeability assay was initiated by adding valerenic acid (5 μM; in HBSS with 4% BSA) to the apical compartment, while the basolateral compartment contained 1′000 μL of HBSS only. […] Samples (150 μL apical, 800 μL basolateral) were collected at each time point (0, 15, 30, 60 min; one insert per time point). After 60 min, a part of the inserts was transferred back to the cellZscope® to monitor TER and Ccl values during another 24 h. The cells grown on the other part of the inserts were quickly washed with 200 μL of cold HBSS and then lysed with 700 μL acetonitrile (100 μL apical, 600 μL basolateral) for 40 min on an orbital shaker (450 rpm, room temperature) to determine the test substance cell contents.\n(§4) Apparent permeability coefficients (Papp) were calculated according to the following Eq. 1: Papp cm/s=∆Q/∆t/ACA0 (1) where ΔQ/Δt is the rate of amount transported to the receiver compartment, A is the membrane surface area (0.33 cm^2), and C A0 is the initial concentration in the apical compartment.\n(§5) The clearance values were calculated according to the following Eq. 2 ([Neuhaus et al., 2008]): Clearance μL=CBnVB/CA−VB/VA∙∑CBn−1 (2) where C Bn and V B are the concentration and volume in the basolateral compartment at a specific timepoint (n), respectively; C A and VA are the concentration and volume in the apical compartment, respectively, and C Bn-1 is the total amount of substance found in the basolateral compartment up to the previous timepoint (n-1).\n(§6) Recovery (mass balance) of each compound was calculated according to the following Eq. 3: Recovery %=CAfVA+CBfVB+CCfVC/CA0VA∙100 (3) where C Af , C Bf and C Cf are the final compound concentrations in apical, basolateral, and cellular compartments, respectively; C A0 is the initial concentration in the apical compartment, and V A , V B and V C are the volumes in the respective compartments.\n(§7) For valerenic acid, 150 µL of the IS in MeOH were added to 50 µL of sample, and the mixture centrifuged for 20 min at 13′200 rpm/16′100 rcf at 10°C (Centrifuge 5415R, Eppendorf). An aliquot (50 µL) of the supernatant was collected and transferred into HPLC vials. Vials were centrifuged for additional 20 min prior to U(H)PLC-MS/MS analysis in full loop mode (2 µL)."}, "[6]": {"system": "BeWo b30 cells", "experiment": "In vitro Transwell permeability assay across BeWo b30 cell layer", "method": "as §1, §2, §3, §4, §5, §6, §7"}, "[7]": {"experiment": "Stability assay in PBS, perfusion medium and placental homogenates", "format": "in vitro ADME, human", "settings": "360 min", "method": "In short, after spiking the various matrices with the study compounds, samples were either processed immediately for U(H)PLC-MS/MS analysis (C0), or kept at 4°C/37°C on an orbital shaker (600 rpm) for 360 min before processing for U(H)PLC-MS/MS analysis. Samples were processed via solid phase extraction or protein precipitation prior to analysis."}, "[8]": {"system": "placental tissue", "experiment": "Histopathological evaluation of perfused placentae", "design": "species or system human", "method": "Immediately after perfusion the placentae were fixed in 4% paraformaldehyde for at least 24 h. Tissue samples from representative placental tissue sections, each from perfused, non-perfused, and transitional area were prepared to perform a pathological examination. For this purpose, the tissue was embedded in paraffin, cut (∅ 2-3 µm), and stained (standard hematoxylin-eosin stain, Braun-Brenn modified Gram stain) according to the standards of routine histopathological diagnosis of the Department of Pathology and Molecular Pathology (University Hospital of Zurich). […] The blood void and width of the intervillous space and fetal blood vessels in the chorionic villi provided information about the quality of perfusion, and particular attention was paid to the presence of intravascular thrombi. General signs of degeneration, such as vacuolization of the cytotrophoblast, villous vascular endothelium viability, and formation of hydropic villous changes compared with non-perfused tissue indicated whether tissue damage might have occurred during perfusion. Microscopic effects and placental tissue damage in the perfused area were expressed in relative amounts (%) to the non-perfused tissue."}, "[9]": {"experiment": "Transwell control experiments across cell-free inserts", "settings": "semi-permeable cell-free insert, within 60 min, 5 μM"}, "[10]": {"experiment": "System adherence test (empty perfusion chamber, maternal circuit only)", "format": "in vitro ADME", "settings": "% of initial concentration, 5 μM in PM, no placental tissue, 240 min, n = 3", "method": "The dissolution and adherence of the compounds to the perfusion equipment and to the tubing system was assessed before starting perfusions with human placentae. […] The compounds were directly dissolved in PM at a final concentration of 5 μM (100 mL reservoir) and individually tested in three independent experiments (n = 3)."}, "[11]": {"settings": "after 240 min of perfusion, 5 μM added to maternal circuit"}, "[12]": {"settings": "% of amount in maternal sample at beginning"}, "[13]": {"settings": "non-perfused area of same placenta"}},
  "note": "Values joined by “and” are separate entries in the source; they are usually repeats but may differ in a detail not shown here. Identical values can stand only once.",
  "data": [
    {"smiles": "CC(C)=CCC[C@]1(C)[C@@H](CC=C(C)C)C[C@]2(CC=C(C)C)C(=O)C(CC=C(C)C)=C(O)[C@@]1(C(=O)C(C)C)C2=O", "note": "[Hyperforin, hyperforin]", "values": [
      {"measurement": "Concentration with increased apoptosis / apoptotic effects", "setting": "[1]", "result": "≥ 3000", "unit": "nM"},
      {"measurement": "Transplacental transfer (in words)", "setting": "[2]; 240 min perfusion, 5 μM maternal", "result": "little transfer to the fetal circuit"},
      {"measurement": "Concentration in the maternal compartment", "setting": "[2]; [11]", "result": "68.6 % of initial concentration"},
      {"measurement": "Sampling (% found)", "setting": "[2]", "result": "21.0 ± 4.5", "unit": "%"},
      {"measurement": "M perfusate (% found)", "setting": "[2]; [12]", "result": "52.2 ± 21.5% and 52.2%"}
    ]},
    {"smiles": "O=C([O-])c1ccccc1-c1c2ccc(=O)cc-2oc2cc([O-])ccc12.[Na+].[Na+]", "note": "[NaF, sodium fluorescein]", "values": [
      {"measurement": "Basolateral amount of NaF", "setting": "[3]", "result": "2.8 % of the initial NaF concentration"}
    ]},
    {"smiles": "CC1=C2[C@H](/C=C(\\C)C(=O)O)CC[C@@H](C)[C@H]2CC1", "note": "[Valerenic acid, valerenic acid]", "values": [
      {"measurement": "recovery at 240 min, 5 μM", "setting": "[4]", "result": 91.5, "unit": "%"},
      {"measurement": "recovery at 60 min, 5 μM", "setting": "[5]", "result": 73.7, "unit": "%"},
      {"measurement": "Passage across the placental cell layer (in words)", "setting": "[6]; 5 μM apical, HBSS with 4% BSA, 60 min", "result": "did not cross the placental cell layer within 60 min"},
      {"measurement": "Papp", "setting": "[6]; apical to basolateral, BeWo b30 cell layer, 5 μM", "result": "zero"},
      {"measurement": "Stability in PBS and PM", "setting": "[7]", "result": "approx. 100%"},
      {"measurement": "Concentrations not lowering viability, no increase in apoptosis or genotoxicity, no negative effect on metabolic activity and cell differentiation", "setting": "[1]; BeWo b30 cells", "result": "up to 30 μM"},
      {"measurement": "Global placental pathology: Else", "setting": "[8]", "result": "Formation of artificial cavities in 10% of perfused areas and N and Singular non-occlusive thrombus in stem villus; CCB"},
      {"measurement": "Sharp transition perfused/non-perfused", "setting": "[8]", "result": "Y and N"},
      {"measurement": "Extravasations into villous stroma (in words)", "setting": "[8]; after perfusion", "result": "no extravasations into villous stroma"},
      {"measurement": "Ruptures of villous vessels (in words)", "setting": "[8]; after perfusion", "result": "no ruptures of villous vessels"},
      {"measurement": "Emptiness of villous vessels in non-perfused", "setting": "[8]; [13]", "result": "10% and 1%"},
      {"measurement": "Hydropic changes in non-perfused", "setting": "[8]; [13]", "result": "5% and 0%"},
      {"measurement": "Intervillous spaces without blood in non-perfused", "setting": "[8]; [13]", "result": "70% and 50% and 60% and 40%"},
      {"measurement": "Thrombi in villous vessels: in non-perfused too?", "setting": "[8]; [13]", "result": 1, "unit": "%"},
      {"measurement": "Vacuolated trophoblast in villi: in non-perfused too?", "setting": "[8]; [13]", "result": "0% and 5%"},
      {"measurement": "Thrombi in vessels of stem villi (in words)", "setting": "[8]; perfused and non-perfused", "result": "no thrombi detectable"},
      {"measurement": "Dilatated intervillous space", "setting": "[8]; perfused area", "result": "50% and 90% and 70%"},
      {"measurement": "Intervillous spaces without blood", "setting": "[8]; perfused area", "result": 95, "unit": "%"},
      {"measurement": "Emptiness of villous vessels", "setting": "[8]; perfused area, individual experiments", "result": "95% and 80% (2×) and 90%"},
      {"measurement": "Concentration in the fetal compartment", "setting": "[2]; [11]", "result": "44.0 % of initial concentration"},
      {"measurement": "Concentration in the maternal compartment", "setting": "[2]; [11]", "result": "45.0 % of initial concentration"},
      {"measurement": "Sampling (% found)", "setting": "[2]", "result": "24.1 ± 4.8", "unit": "%"},
      {"measurement": "F perfusate (% found)", "setting": "[2]; fetal perfusate after 240 min, % of amount in maternal sample at beginning", "result": "33.1 ± 10.7% and 33.1%"},
      {"measurement": "FM ratio at 240 min", "setting": "[2]; fetal/maternal concentration ratio, 240 min, antipyrine from control perfusions", "result": 1.01},
      {"measurement": "M perfusate (% found)", "setting": "[2]; [12]", "result": 34.4, "unit": "%"},
      {"measurement": "Time to equilibrium between fetal and maternal compartment", "setting": "[2]; perfusion profiles, antipyrine as connectivity control", "result": 240, "unit": "min"},
      {"measurement": "Clearance across cell-free insert", "setting": "[9]", "result": 28.3, "unit": "µL"},
      {"measurement": "Compound lost / adhering to the perfusion equipment", "setting": "[10]", "result": "5.6% and 5.6% ± 1.9%"}
    ]}
  ]
}
